Laboratory results: PMC8484168 (Cancer Chemotherapy and Pharmacology, 2021)
Read-outs that look alike come from different tables or passages of the source.

Tests used:
[1] = DDI analysis: geometric mean ratio of probe drug PK with versus without rucaparib; type: in vivo, human; conditions: Arm B; steady-state rucaparib
Text: The DDI analysis population included patients who completed the DDI assessment per protocol and had sufficient PK data to calculate Cmax and AUC of the probe drug with and without rucaparib. […] With the assumption that intrapatient PK variability would be 35% for the probe drugs, a total enrollment of 32 patients was planned for this study: 16 for Arm A and 16 for Arm B. […] The primary PK parameters were natural log-transformed before assessment with a paired t test.

[2] = Plasma PK of rosuvastatin and oral contraceptives with and without rucaparib (phase 1 DDI study, noncompartmental analysis); type: in vivo, human; conditions: for detected in human plasma up to (postdose): 30 µg dose, LC–MS/MS; for AUC(0-inf) / AUC(0-t) / Cmax / half-life / Vd/F / Tmax: human; for AUC(0-inf) / AUC(0-t) / Cmax / half-life / Vd/F: po; for Tmax: read-out: tmax, Median (range); for change of median tmax with rucaparib: with vs without rucaparib
Text: This was a 2-part, phase 1, open-label, 2-arm DDI study in patients with advanced solid tumors. In Part 1 of the study, patients were screened for eligibility from day − 28 to − 2 and visited the study site from day − 1 to 23 (Fig. 1). […] To check steady-state plasma concentrations for rucaparib, a blood sample was collected prior to the dosing of rucaparib on days 5, 9, 11, 15, and 19–23.
Other PK parameters, calculated for the probe drugs, included half-life (t1/2), tmax, apparent total clearance of drug after oral administration (CL/F), and apparent volume of distribution during terminal phase (VZ/F). The PK parameter calculated for rucaparib at steady state was trough plasma concentration (Cmin). PK parameters were calculated by noncompartmental analysis using Phoenix WinNonlin, version 8.1 (Certara, Princeton, NJ).
Details are provided in Online Resource 1.
The LC consisted of a Gemini NX C18 column (2 x 50 mm, 3 μm, Phenomenex, Torrance, CA) and was eluted with a gradient consisting of 0.1% acetic acid in water as mobile phase A and with 100% acetonitrile as mobile phase B at an initial flow rate of 0.5 mL/min at room temperature. The MS/MS consisted of an AB SCIEX API5000 system and was operated with Analyst version 1.6.2 in TurboIonSpray and positive ionization mode. […] The concentration range for quantitation was 0.1–100 ng/mL.
Separation between potential metabolites and interfering endogenous compounds was achieved by ultra-high performance liquid chromatography with a CSH C18 column at 40°C and gradient elution using 0.1% formic acid in water as mobile phase A and acetonitrile as mobile phase B, operating at an initial flow rate of 0.800 mL/min. A triple quadrupole mass spectrometer (Triple Quad 6500) equipped with a turbo ion spray source was used for detection in positive ion mode.

[3] = plasma, 600 mg, with rucaparib 600 mg BID (day 19), single oral dose, plasma, read-out: AUC0–inf, GM (%CV)
[4] = plasma, 600 mg, with rucaparib 600 mg BID (day 19), single oral dose, plasma, read-out: AUC0–inf, Mean (SD)
[5] = plasma, 600 mg, with rucaparib 600 mg BID (day 19), single oral dose, plasma, read-out: AUC0–inf, Median (range)
[6] = plasma, 600 mg, with rucaparib 600 mg BID (day 19), single oral dose, plasma, read-out: AUC0–last, GM (%CV)
[7] = plasma, 600 mg, with rucaparib 600 mg BID (day 19), single oral dose, plasma, read-out: AUC0–last, Mean (SD)
[8] = plasma, 600 mg, with rucaparib 600 mg BID (day 19), single oral dose, plasma, read-out: AUC0–last, Median (range)
[9] = plasma, 600 mg, with rucaparib 600 mg BID (day 19), single oral dose, plasma, read-out: Cmax, GM (%CV)
[10] = plasma, 600 mg, with rucaparib 600 mg BID (day 19), single oral dose, plasma, read-out: Cmax, Median (range)
[11] = plasma, 600 mg, with rucaparib 600 mg BID (day 19), single oral dose, plasma, read-out: t1/2, GM (%CV) (converted)
[12] = plasma, 600 mg, with rucaparib 600 mg BID (day 19), single oral dose, plasma, read-out: t1/2, Mean (SD) (converted)
[13] = plasma, 600 mg, with rucaparib 600 mg BID (day 19), single oral dose, plasma, read-out: t1/2, Median (range) (converted)
[14] = plasma, 600 mg, with rucaparib 600 mg BID (day 19), single oral dose, read-out: VZ/F, GM (%CV)
[15] = plasma, 600 mg, with rucaparib 600 mg BID (day 19), single oral dose, read-out: VZ/F, Mean (SD)
[16] = plasma, 600 mg, with rucaparib 600 mg BID (day 19), single oral dose, read-out: VZ/F, Median (range)
[17] = plasma, without rucaparib (day 1), single oral dose, plasma, PK analysis population, read-out: Cmax, Mean (SD)
[18] = plasma, without rucaparib (day 1), single oral dose, plasma, read-out: AUC0–inf, GM (%CV)
[19] = plasma, without rucaparib (day 1), single oral dose, plasma, read-out: AUC0–inf, Mean (SD)
[20] = plasma, without rucaparib (day 1), single oral dose, plasma, read-out: AUC0–inf, Median (range)
[21] = plasma, without rucaparib (day 1), single oral dose, plasma, read-out: AUC0–last, Mean (SD)
[22] = plasma, without rucaparib (day 1), single oral dose, plasma, read-out: AUC0–last, Median (range)
[23] = plasma, without rucaparib (day 1), single oral dose, plasma, read-out: Cmax, GM (%CV)
[24] = plasma, without rucaparib (day 1), single oral dose, plasma, read-out: Cmax, Median (range)
[25] = plasma, without rucaparib (day 1), single oral dose, plasma, read-out: t1/2, GM (%CV) (converted)
[26] = plasma, without rucaparib (day 1), single oral dose, plasma, read-out: t1/2, Mean (SD) (converted)
[27] = plasma, without rucaparib (day 1), single oral dose, plasma, read-out: t1/2, Median (range) (converted)
[28] = plasma, without rucaparib (day 1), single oral dose, read-out: VZ/F, GM (%CV)
[29] = plasma, without rucaparib (day 1), single oral dose, read-out: VZ/F, Mean (SD)
[30] = plasma, without rucaparib (day 1), single oral dose, read-out: VZ/F, Median (range)
[31] = without rucaparib (day 1), single oral dose, plasma
[32] = with rucaparib 600 mg BID (day 19), single oral dose
[33] = without rucaparib (day 1), single oral dose

AUC increase with rucaparib [1]	Cmax increase with rucaparib [1] [fold]	AUC(0-inf) [2, 3] [ng·h/mL]	AUC(0-inf) [2, 4] [ng·h/mL]	AUC(0-inf) [2, 5] [ng·h/mL]	AUC(0-t) [2, 6] [ng·h/mL]	AUC(0-t) [2, 7] [ng·h/mL]	AUC(0-t) [2, 8] [ng·h/mL]	Cmax [2, 9] [ng/mL]	Cmax [2, 10] [ng/mL]	half-life [2, 11] [h]	half-life [2, 12] [h]	half-life [2, 13] [h]	Vd/F [2, 14] [L]	Vd/F [2, 15] [L]	Vd/F [2, 16] [L]	Cmax [2, 17] [ng/mL]	AUC(0-inf) [2, 18] [ng·h/mL]	AUC(0-inf) [2, 19] [ng·h/mL]	AUC(0-inf) [2, 20] [ng·h/mL]	Compound	further results
approximately 1.4 fold	< 1.25	1.41	1.49	1.37	1.15	1.24	1.18	0.0784	0.0756	24.8	30	27.1	653	684	620	0.0792	0.962	0.994	1	C#C[C@]1(O)CC[C@H]2[C@@H]3CCc4cc(O)ccc4[C@H]3CC[C@@]21C [ethinylestradiol]	detected in human plasma up to (postdose) ([2]; with rucaparib): ≤ 72 h; detected in human plasma up to (postdose) ([2]; without rucaparib): up to 48 h; AUC(0-t) [2, 21]: 0.804 ng·h/mL; AUC(0-t) [2, 22]: 0.775 ng·h/mL; Cmax [2, 23]: 0.0732 ng/mL; Cmax [2, 24]: 0.0734 ng/mL; half-life [2, 25]: 15.9 h; half-life [2, 26]: 17 h; half-life [2, 27]: 18.1 h; Vd/F [2, 28]: 772 L; Vd/F [2, 29]: 792 L; Vd/F [2, 30]: 772 L; Tmax [2, 31]: 1 h; Cmax, Mean (SD) ([2]; with rucaparib 600 mg BID (day 19), single oral dose, plasma, PK analysis population): 0.0893 (0.0443) ng/mL; change of median tmax with rucaparib [2]: 0.5 h
~1.6 fold	< 1.25	102	109	87.3	77.5	86	80.4	3.43	3.48	46.6	50	43.6	77.6	82.8	85.6	3.32	64	72.7	55.4	C#C[C@]1(O)CC[C@H]2[C@@H]3CCC4=CC(=O)CC[C@@H]4[C@H]3CC[C@@]21CC [levonorgestrel]	Cmax ([2]; plasma, 600 mg, with rucaparib 600 mg BID (day 19), single oral dose, plasma, PK analysis population, read-out: Cmax, Mean (SD)): 3.77 ng/mL; AUC(0-t) ([2]; plasma, without rucaparib (day 1), single oral dose, plasma, read-out: AUC0–last, GM (%CV)): 52.9 ng·h/mL; AUC(0-t) [2, 21]: 59.7 ng·h/mL; AUC(0-t) [2, 22]: 45.3 ng·h/mL; Cmax [2, 23]: 3.17 ng/mL; Cmax [2, 24]: 3.29 ng/mL; half-life [2, 25]: 38.5 h; half-life [2, 26]: 41.1 h; half-life [2, 27]: 37.1 h; Vd/F [2, 28]: 103 L; Vd/F [2, 29]: 113 L; Vd/F [2, 30]: 114 L; Tmax ([2]; with rucaparib 600 mg BID (day 19), single oral dose, plasma): 1.5 h; Tmax [2, 31]: 1.51 h; CL/F, Mean (SD) [2, 32]: 1.57 (0.531) L/h; CL/F, Median (range) [2, 32]: 1.72 (0.701–2.39) L/h; change of median tmax with rucaparib [2]: remained the same; CL/F, Mean (SD) [2, 33]: 2.57 (1.01) L/h; CL/F, Median (range) [2, 33]: 2.71 (0.891–3.84) L/h
